{"source": "paper PMC8964421", "about": "“Widespread occurrence of covalent lysine–cysteine redox switches in proteins” (Nature Chemical Biology, 2022)", "target": "T1, NgTAL; transaldolase from Neisseria gonorrhoeae (Neisseria gonorrhoeae, UniProt Q5F6E9)", "T1 construct": "gene tal; recombinant from pET SUMO vector, purified", "T1 sequence (Q5F6E9 1-351)": "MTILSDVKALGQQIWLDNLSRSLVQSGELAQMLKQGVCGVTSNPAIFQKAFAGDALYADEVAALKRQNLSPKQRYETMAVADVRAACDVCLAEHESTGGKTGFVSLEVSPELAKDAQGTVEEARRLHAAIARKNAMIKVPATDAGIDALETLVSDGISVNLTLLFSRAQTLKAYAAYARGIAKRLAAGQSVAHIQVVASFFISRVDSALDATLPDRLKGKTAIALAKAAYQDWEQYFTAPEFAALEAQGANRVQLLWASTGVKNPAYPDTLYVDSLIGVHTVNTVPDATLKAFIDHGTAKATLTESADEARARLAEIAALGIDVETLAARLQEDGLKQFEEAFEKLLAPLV", "test": "coupled enzymatic assay at […] nm, steady-state kinetics", "assay_type": "biochemical", "details": "co-substrate D-erythrose-4-phosphate; reducing (1 mM DTT) and non-reducing conditions; varied substrate not named in main text", "data": [{"molecule": "O=P(O)(O)OC[C@H]1OC(O)(CO)[C@@H](O)[C@@H]1O", "note": "(stereo partly drawn) [D-fructose-6-phosphate]", "values": [{"measurement": "Michaelis constant", "value": "monitors the conversion of ketose donor D-fructose-6-phosphate and aldose acceptor D-erythrose-4-phosphate into products"}]}]}
